For orientation: Ki means a measure of affinity in units of concentration, obtained from inhibition or displacement. As a reminder, the IC50 is the concentration that inhibits the measured activity by half. For orientation: CC50 means the concentration that lowers cell viability or growth by half. As a reminder, the Kd is the equilibrium constant for the complex coming apart.

Read-outs that look alike come from different tables or passages of the source.

Data set [1] has as its target T1, VIM-2 (Escherichia coli, UniProt Q5U7L7). The data set can be described thus: Enzymatic metallo-β-lactamase assay on purified VIM-2. It is filed as biochemical. As to conditions: for Ki: approximated from Dixon plots (1/v vs [I]) at one constant substrate concentration, ± SE, read-out: Estimated inhibition constant Ki VIM-2; for logIC50 VIM-2: log of IC50, ± SEM of logIC50; for IC50: purified enzyme 1 nM, nitrocefin 15 μM, pH 7.2, 25 °C. On the procedure: (§1) A few inhibitors were tested up to 1600 μM to ensure nearly complete inhibition. Solutions of 100 μL consisting of buffer, purified enzyme (1 nM for GIM-1 and VIM-2, 5 nM for NDM-1), inhibitor and reporter substrate nitrocefin (15 μM for VIM-2, 2 μM for GIM-1) or imipenem (30 μM for NDM-1) were incubated in triplicates on a 96 well plate for 5 min at 25 °C. Buffer solution consisted of 50 mM HEPES pH 7.2, 50 μM ZnSO4 and 0.4 mg/ml bovine serum albumine. Inhibitors were dissolved in DMSO but diluted to assure <2% DMSO in measured assay. Absorbance was measured at 482 nm (nitrocefin) and 300 nm (imipenem) on a SpectraMax M4 spectrophotometer. The initial velocity at each inhibitor concentration was analyzed in GraphPad Prism v9.3.1 and fitted to dose-response curves by non-linear regression (log [inhibitor] vs response) used to calculate IC50 (Supplementary Tables S2–5).

In data set [2] the target is T2, GIM-1 (Pseudomonas aeruginosa, UniProt Q704V1). The data set can be described thus: Enzymatic metallo-β-lactamase assay on purified GIM-1. The data set is classed as biochemical. The conditions noted are these: approximated from Dixon plots (1/v vs [I]) at one constant substrate concentration; ± SE; read-out: Estimated inhibition constant Ki GIM-1.
In another data set the target is T3, 15N-labelled VIM-2 (Escherichia coli, UniProt Q5U7L7).
T3 construct: made in house
The data set can be described thus: 1H,15N-HSQC titration of VIM-2. The data set is classed as binding. As to conditions: 10 equivalents of compound, 600 MHz, pH 7.0, 25 °C. How it is done:
The ^1H, ^15N-HSQC spectra for the titration experiments were recorded on a Bruker Avance Neo 600 MHz spectrometer equipped with a 5 mm TCI cryogenic probe at 25 °C. The U-[^15N]-labeled VIM-2 was prepared in a buffer of 20 mM KPO4, 0.1 mM ZnCl2, at pH 7.0, containing 85% H2O/15% D2O at a concentration of 0.25 mM. The U-[^15N]-labeled NDM-1 was used in a buffer of 20 mM HEPES, 0.1 mM ZnCl2, at pH 7.0, containing 85% H2O/15% D2O at a concentration of 0.25 mM. The ligands 5d, 5g, 5i, 5j (for VIM-2 titrations) and 5 f (for NDM-1 titration) were dissolved in the same buffer as the corresponding enzymes. Spectra were recorded using solvent suppression, 1024 points in f1, 16 transients, 512 increments in f2 and a relaxation delay of 0.2 s. The titrations were carried out with 0, 0.25, 0.50, 1.00, 1.50, 2.25, 3.00, 4.00, 5.00, 7.00, 10.0 equivalents of the inhibitors.
Figure S47. Superimposition of the 1H,15N-HSQC spectrum (600 MHz, pH 7.0, 25 °C) of
VIM-2 in the absence (blue) and in the presence (green) of 10 molar equivalent of compound
5j. Buffer: 20 mM KPO4, 0.1 mM ZnCl2, with 15% D2O.
Chemical shift perturbation values (CSP, ΔδNH) were calculated as the weighted average of
the chemical shift changes in f1 (ΔδN) and f2 (ΔδH) dimensions using the following equation 8:
∆δ = √∆δ 2 + ( N ); R = 6.5
Figure S48. Linear regression of the chemical shift perturbations of compound 5g (IC50 =
12 μM) as a function of the chemical shift perturbations of compounds 5c (yellow circle), 5d
(grey square), 5i (green triangle) and 5j (blue circle) for VIM-2. The data of the studied […]

The next data set can be described thus: MTT cytotoxicity assay. It is filed as cell-based. As to conditions: human, HepG2 cells. On the procedure: Cytotoxic activity of the compounds was measured through the MTT colorimetric assay as previously described[60] using the Colorimetric (MTT) Kit for Cell Survival and Proliferation (Merck/Millipore; Darmstadt, Germany). HepG2 cells (human hepatocellular carcinoma cell line) were kept in penicillin/streptomycin-free medium overnight and then they were treated with the compounds for 24 h. Subsequently, the MTT reagent was added to the cells and after 3 h of incubation, MTT-derived formazan crystals were solubilized in acidified isopropanol (0.1 mL isopropanol with 0.04 N HCl). Absorbance was measured with multiscan spectrophotometer (Thermo Fisher Scientific) at 530 nm test and 630 nm reference wavelengths. Cell viability was expressed as the percentage of viable, untreated cells. CC50 values were determined with GraphPad Prism software (v9.3.1) and adjusted to dose-response curves by non-linear regression (Supplementary Table S7).
8. Cytotoxocity against HepG2 cells
Table S7. CC50 values and viability curves of metallo-β-lactamase inhibitors tested on HepG2 […]
cells. […]
range. Data are shown as % via bility values ± SEM (n=4). Calculations were done using […]
Inhibitors CC50 (μM) HepG2 […]

In data set [3] the target is T2, GIM-1. The data set can be described thus: Enzymatic metallo-β-lactamase assay on purified GIM-1. It is filed as biochemical. As to conditions: for logIC50 GIM-1: log of IC50, ± SEM of logIC50; for IC50: purified enzyme 1 nM, nitrocefin 2 μM, pH 7.2, 25 °C. On the procedure:
as §1

Data set [4] in a line: Long term stability in buffer with 2.5% DMSO (LC-MS). It is filed as physicochemical. As to conditions: 20 mM KPO4, 0.1 mM ZnCl2, pH 7.0 + 2.5% DMSO; LC-MS 254 nm. The text has this: Reagents, reactants, solvents and drying agents for synthesis, work-up and purification were purchased from commercial vendors (Sigma-Aldrich, VWR, Merck, Fluorochem, Thermo Fisher Scientific, Solveco), and if not stated otherwise they were used without further purification. Reactions and long term stability of the final compounds in buffer were monitored using LC-MS (Agilent 1260 Infinity II) equipped with an ESI-Q detector (Infinitylab LC-MSD) using Agilent InfinityLab Poroshell 120 C18 columns (2.7 μm, ϕ 2.1 mm L 50 mm or 2.7 μm, ϕ 4.6 mm L 50 mm). The intermediates were purified using VWR silica gel 60 (40–63 μm) with a Biotage Isolera One flash column chromatography instrument. The final products were purified with preparative RP-HPLC (VWR LaPrep P110) with single wavelength detection (254 nm), using a Kinetex C8 column (5 μm, 100 Å, ϕ 21.2 mm L 250 mm) and gradients of CH3CN/H2O + 0.1% formic acid as the mobile phase at a 10 mL/min flow rate. Analytical HPLC data were acquired on a VWR LaChrome ELITE system using an ACE3 C8 (3 μm, 300 Å, ϕ 3.0 mm L 100 mm) or a Kinetex C18 columns (5 μm, 100 Å, ϕ 3.0 mm L 150 mm). NMR spectra were recorded on a Varian Agilent MR400-DD2 400 MHz spectrometer equipped with a OneNMR probe, Bruker Avance Neo 500 MHz spectrometer equipped with a cryogenic TXO probe, or a Bruker Avance Neo 600 MHz spectrometer equipped with a TCI cryogenic probe. The chemical shifts are reported using the residual solvent signal as an indirect reference to TMS.
4. Long term stability of the final compounds in buffer with 2.5% DMSO
The long term stability of the final compounds in buffer (20 mM KPO4, 0.1 mM ZnCl2, pH 7.0 + 2.5% DMSO) were monitored using LC-MS (Agilent 1260 Infinity II) equipped with an ESI-Q detector (Infinitylab LC-MSD) using Agilent InfinityLab Poroshell 120 C18 column (2.7 μm, ϕ 4.6 mm L 50 mm) at 254 nm with a 7 min long gradient method (5% to 95% CH3CN) of CH3CN/H2O + 0.1% formic acid as the mobile phase at a 1.0 mL/min flow rate. The samples were measured right after dissolving them in buffer, and after 1 month of keeping the same samples dissolved in the same buffer. The main peaks (> 95%) and impurities with > 1% are […]
Figure S14. Compound 5a right after dissolving it in buffer.
Figure S15. Compound 5a kept in buffer for 1 month. […]

For data set [5], the target named is T1, VIM-2. The conditions noted are these: cited from earlier work.
Data set [6] has as its target T4, NDM-1 (Klebsiella pneumoniae, UniProt C7C422). The experiment in a line: Enzymatic metallo-β-lactamase assay on purified NDM-1. The data set is classed as biochemical. As to conditions: for Ki: approximated from Dixon plots (1/v vs [I]) at one constant substrate concentration, ± SE, read-out: Estimated inhibition constant Ki NDM-1; for logIC50 NDM-1: log of IC50, ± SEM of logIC50; for IC50: purified enzyme 5 nM, imipenem 30 μM, pH 7.2, 25 °C. On the procedure:
as §1

The conditions of data set [7]: read-out: Kd, affinity to zinc ions; cited from earlier work.
Data set [8] concerns the target T4, NDM-1. As to conditions: read-out: IC50 against NDM-1; cited from earlier work.
[9] abbreviates: HepG2, MTT, read-out: CC50 (in viability curve).
Setting [10] is: MTT, 0.0025 mM - 1mM concentration range, read-out: Cytotoxicity CC50 HepG2.

T2 sequence (Q704V1 entry or part of it): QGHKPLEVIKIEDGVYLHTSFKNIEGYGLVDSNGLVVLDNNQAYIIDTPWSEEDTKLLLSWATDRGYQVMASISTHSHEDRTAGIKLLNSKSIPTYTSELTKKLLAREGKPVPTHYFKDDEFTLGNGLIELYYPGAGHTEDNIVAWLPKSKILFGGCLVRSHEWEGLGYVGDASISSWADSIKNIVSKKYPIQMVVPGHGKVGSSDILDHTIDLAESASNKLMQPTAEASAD
T4 sequence (C7C422 29-270, looked up, species assumed): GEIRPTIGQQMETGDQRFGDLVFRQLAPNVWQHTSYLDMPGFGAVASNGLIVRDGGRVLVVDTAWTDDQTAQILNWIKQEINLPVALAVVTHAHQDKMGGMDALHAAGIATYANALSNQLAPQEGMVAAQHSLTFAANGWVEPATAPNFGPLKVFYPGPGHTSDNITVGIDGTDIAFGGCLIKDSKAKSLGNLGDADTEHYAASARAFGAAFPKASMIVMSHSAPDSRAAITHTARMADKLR

For `O=C(NC(c1ccccc1O)P(=O)(O)O)c1csc2ccccc12` (stereo not drawn) [5d], at VIM-2 [1], the Ki was 31 ± 5 µM, the “logIC50 VIM-2” value is 1.33 ± 0.03 μM and inhibition was half-maximal at 21 µM (IC50). Further, the Ki at GIM-1 [2] is 64 ± 13 µM. The “Mean chemical shift perturbation, VIM-2” value at 15N-labelled VIM-2 came to 0.04 ppm. Moreover, in “MTT cytotoxicity assay” (setting [9]), the 50% cytotoxic concentration (CC50) at 24 h stood at 4400 µM. In the data set “MTT cytotoxicity assay” (setting [10]), the CC50 at 24 h turned out to be 4440 µM. Besides, on GIM-1 [3], the “logIC50 GIM-1” value was found to be 1.01 ± 0.19 μM and the IC50 turned out to be 10 µM. For the same molecule, in data set [4], the “main peak Area% kept in buffer for 1 month” value (“main peak Area% kept” for short) turned out to be 97.15% and the “main peak Area% right after dissolving in buffer” value (from here on “main peak Area% right”) is 97.92%.

Take `NCCN[C@H]1CC[C@H](CC(=O)N[C@H]2Cc3cccc(C(=O)O)c3OB2O)CC1` [taniborbactam]: the IC50 was 0.002 µM at VIM-2 [5] (Table S8, ref 35 (SI), read-out: IC50 VIM-2) and 0.04 µM on VIM-2 [5] (read-out: IC50 for VIM-2).

Turning to `O=C(Cc1cccs1)NC(c1ccccc1O)P(=O)(O)O` (stereo not drawn) [5i], on VIM-2 [1], the Ki is 76 ± 8 µM, the “logIC50 VIM-2” value worked out at 1.58 ± 0.08 μM and half-maximal inhibition (IC50) required 38 µM. On GIM-1 [2], the Ki is 348 ± 28 µM. For the same molecule, on 15N-labelled VIM-2, the “Mean chemical shift perturbation, VIM-2” value was determined as 0.04 ppm. Besides, in the data set “MTT cytotoxicity assay” (setting [9]), the half-maximal cytotoxic concentration (CC50) at 24 h was determined as 1500 µM. Further, the CC50 at 24 h in the data set “MTT cytotoxicity assay” (setting [10]) came out at 1490 µM. On GIM-1 [3], the “logIC50 GIM-1” value was found to be 2.28 ± 0.52 μM and 189 µM corresponded to half-maximal inhibition (IC50). Besides, at NDM-1 [6], the Ki is 1070 ± 360 µM; the “logIC50 NDM-1” value is given as 1.94 ± 0.08 log10(IC50/μM); the midpoint of inhibition, the IC50, lay at 87 µM. Besides, in [4], the “main peak Area% kept” value is recorded as 97.58% and the “main peak Area% right” value is given as 96.45%.

Turning to `O=C(Cc1ccsc1)NC(c1ccccc1O)P(=O)(O)O` (stereo not drawn) [5j], at VIM-2 [1], the Ki was 88 ± 16 µM, the “logIC50 VIM-2” value was 1.57 ± 0.03 μM and it took 37 µM to reach half-maximal inhibition (IC50). Moreover, the “Mean chemical shift perturbation, VIM-2” value at 15N-labelled VIM-2 was 0.04 ppm. Moreover, the CC50 at 24 h in “MTT cytotoxicity assay” (setting [9]) was determined as 4000 µM. In addition, the CC50 at 24 h in “MTT cytotoxicity assay” (setting [10]) was 3970 µM. Moreover, on GIM-1 [3], the “logIC50 GIM-1” value came to 2.01 ± 0.06 μM and 103 µM corresponded to half-maximal inhibition (IC50). Further, at NDM-1 [6], the Ki was 196 ± 13 µM, the “logIC50 NDM-1” value was 2.37 ± 0.07 log10(IC50/μM) and inhibition was half-maximal at 232 µM (IC50). In data set [4], the “main peak Area% kept” value is given as 96.88% and the “main peak Area% right” value worked out at 95.28%.

Turning to `O=C(O)CN(CC(=O)O)CP(=O)(O)O` [N-(phosphonomethyl)-iminodiacetic acid], in data set [7], the Kd was 0.056 µM. For the same molecule, the IC50 was 0.68 µM at VIM-2 [5] (read-out: IC50 against VIM-2) and 0.91 µM on NDM-1 [8].

With `O=C(NC(c1ccccc1O)P(=O)(O)O)c1cc2ccccc2s1` (stereo not drawn) [5c], on VIM-2 [1], the Ki is 71 ± 6 µM, the “logIC50 VIM-2” value came out at 2.01 ± 0.05 μM and the IC50 stood at 103 µM. For the same molecule, the Ki on GIM-1 [2] is 102 ± 10 µM. The “Mean chemical shift perturbation, VIM-2” value on 15N-labelled VIM-2 was found to be 0.05 ppm. In addition, the CC50 at 24 h in the data set “MTT cytotoxicity assay” (setting [9]) amounted to 2900 µM. Moreover, in “MTT cytotoxicity assay” (setting [10]), the CC50 at 24 h amounted to 2930 µM. Also, on GIM-1 [3], the “logIC50 GIM-1” value amounted to 2.01 ± 0.09 μM and the half-inhibitory concentration (IC50) stood at 101 µM. Besides, in data set [4], the “main peak Area% kept” value is 97.59% and the “main peak Area% right” value was found to be 97.20%.

(Values after paper PMC12009420, “Dynamically chiral phosphonic acid-type metallo-β-lactamase inhibitors” (Communications Chemistry, 2025).)
